Measured values reported in publication PMC2565697, “HLA Class I-T Cell Epitopes from trans-Sialidase Proteins Reveal Functionally Distinct Subsets of CD8^+ T Cells in Chronic Chagas Disease” (PLoS Neglected Tropical Diseases, 2008).
Ends that are not written are not given here.

target: HLA-A2.1 molecule (Homo sapiens, UniProt P04439, D140Y/D185E/D98H/E176V/E277Q/G131W/G231S/I119V/I121R/I166T/I218V/L300P/L318F/N151K/N90K/P208A/P217A/Q86G/Q94H/R138H/R169H/T345S); assay: HLA-A class I binding assay (competitive inhibition of radiolabeled probe peptide); conditions: competitive inhibition of binding of radiolabeled standard probe peptide to purified detergent-solubilized HLA-A2.1

Row | Sequence | IC50 [nM]
1 | ELLRPTTLV [Ts 52] | 2410
2 | FANHDFTLV [Ts 34] | 101
3 | FANHKFTLV [Ts 38] | 148
4 | FANNKFTLV [Ts 43] | 116
5 | FANYKFTLV [Ts 44] | 49
6 | FANYNFTLL [Ts 51] | 1500
7 | FANYNFTLV [Ts 48] | 0.47
8 | FLSHDFTLV [Ts 24] | 0.46
9 | FLSHNFTLVF [Ts 27] | 0.61
10 | FTNNKFTLS [Ts 68] | > 50000
11 | FVDYNFSLV [Ts 47] | 1.1
12 | FVNHRFTLV [Ts 37] | 304
13 | FVNYNFTLV [Ts 45] | 0.25
14 | FVSCDFTIV [Ts 35] | 30
15 | GLLPSLLLLL [Ts 3] | 3.1
16 | IANYNFTLV [Ts 56] | 29600
17 | LLGLWGLATA [Ts 6] | 24
18 | LLGLWGTAAL [Ts 13] | 499
19 | LLGLWVFAAL [Ts 2] | 36
20 | RLLPSLLLLL [Ts 4] | 0.8
21 | RVSRPTTVV [Ts 58] | 2490
22 | SLSHYFTLVF [Ts 26] | 1.6

system: PBMC from HLA-A2.1+ patients with chronic Chagas disease; assay: IFN-γ ELISPOT with individual HLA-A0201-binding ts peptides in HLA-A2.1+ subjects; format: cell-based, human; conditions: HLA-A2.1+ patients group G0, peptide 10 µg/ml, 4×10^5 PBMC/well, 16–20 hr, positive: >=25 SFCs/10^6 PBMC and at least twice media alone

Row | Sequence | No. of positive responders/total no. of subjects assayed (%), G0
23 | FTNNKFTLS [Ts 68] | 0/6

same assay, conditions: HLA-A2.1+ patients group G1, peptide 10 µg/ml, 16–20 hr

Row | Sequence | No. of positive responders/total no. of subjects assayed (%), G1
24 | FTNNKFTLS [Ts 68] | 0/5

same assay, conditions: HLA-A2.1+ patients group G2/G3, peptide 10 µg/ml, 16–20 hr

Row | Sequence | No. of positive responders/total no. of subjects assayed (%), G2/G3
25 | FTNNKFTLS [Ts 68] | 0/8

system: PBMC from chronic Chagas disease subjects; assay: IFN-γ ELISPOT with supertype peptide pools, single peptides or lysate in non-HLA-typed G0 subjects; format: cell-based, human; conditions: single peptides 10 µg/ml, representative results from single individuals, media alone subtracted (media alone 13±10)
Method: The number of peptide-specific IFN-γ and IL-2-secreting T cells was determined by ex vivo ELISPOT using commercial kits (Becton & Dickinson, San Diego, CA). Cryopreserved PBMC from chronic chagasic subjects were seeded in triplicate wells at a concentration of 4×10^5/well, and stimulated with individual peptides (10 µg/ml), peptide pools (7–13 peptides per pool, 5 µg/ml/peptide) comprising HLA A01 (2 pools), A02 (2 pools), A03 (2 pools), A24 (2 pools), B07 (1 pool) or B44 (1 pool)-binding peptides or T. cruzi lysate (10 µg/ml) for 16–20 hr at 37°C and 5% CO2. For controls, cells were incubated with complete RPMI, A2-restricted HIV Pol (amino acids 510–518: […]), A2-restricted flu matrix 1 (amino acids 58–66: […]) or 50 ng/ml […] and 500 nM ionomicin (Sigma). Spot forming cells (SFCs) were automatically enumerated using ImmunoSpot analyzer (CTL).
The mean number of SFCs in triplicate wells was obtained for each condition, and the number of specific IFN-γ and IL-2-secreting T cells (net SFCs), was calculated by subtracting the value of the wells containing media alone from the peptide/mitogen-stimulated spot count. Responses were considered significant if a minimum of 25 SFCs/1×10^6 PBMC were present per well, and additionally, this number was at least twice the value of wells with media alone.
The number of annotated T. cruzi genes containing supertype-binding epitopes was then used to prioritize peptides to be assessed for recognition by CD8^+ T cells from a group of non-HLA-typed chagasic subjects (Table 2). IFN-γ ELISPOT responses to peptide pools containing a total of ninety-six epitopes representing HLA A01 (18 epitopes), HLA A02 (20 epitopes), HLA A03 (20 epitopes), HLA A24 (14 epitopes), HLA B07 (11 epitopes) and HLA-B44 (13 epitopes) supertypes were evaluated in 25 chronic Chagas disease subjects without clinical and radiological evidence of heart disease (G0 status) regardless of their HLA type. […] Four subjects had positive responses to more than one supertype (3 of these subjects recognized both HLA-A02 and HLA-A03-binding peptides, Fig. 1). It is noteworthy that responses to HLA-A02 and HLA03 supertype-restricted epitopes covered 77% of the total responses detected, consistent with the high worldwide frequency of these alleles.

Row | Sequence | No. Net IFN-γ SFCs/10^6 PBMC [SFCs/10^6 PBMC]
26 | AVAEAQCKK | 18
27 | FLYNRPLNS | 18
28 | FQGAWAEWPV | 32
29 | FTLVASVTI | 35
30 | FTLVATVSI | 70
31 | FTSAVLLLL | 25
32 | FVSPSLVSA | 18
33 | HLFYSAVLL | 40
34 | HNFTLVASV | 15
35 | ITATIEGRK | 50
36 | IYMLVGKYS | 65
37 | LLLGLWGFA | 30
38 | LLLLVVMMCC | 18
39 | LVTLPVYSK | 15
40 | LWLTDNTHI | 463
41 | MLSRVAAVK | 38
42 | MLVTLPVYS | 15
43 | NVMLVTLPV | 18
44 | RVLLLLLLGL | 20
45 | TSAVLLLLVV | 18
46 | VALMLQGNK | 18
47 | VTDNNRSFY | 30
